The IC50 is the point on the concentration scale where inhibition reaches its midpoint. A word on the melting point: it is the temperature of the solid-liquid transition.

The source of these data is patent US6903238B2, “Substituted indenones as estrogenic agents” (Wyeth, priority 2001, dated 2005).

In data set [1] the target is T1, human ERβ (Homo sapiens, UniProt Q92731).
T1 construct: M250-V595 of human ERα [Green, et al., Nature 320: 134-9 (1986)] and M214-Q530 of human ERβ; Flag (C); made in house; host or cells: E. coli BL21(DE3)
Description: Radioligand binding competition with [3H]-17β-estradiol, ERβ.

The target in data set [2] is T2, human ERα (Homo sapiens, UniProt P03372).
T2 sequence (P03372 250-595): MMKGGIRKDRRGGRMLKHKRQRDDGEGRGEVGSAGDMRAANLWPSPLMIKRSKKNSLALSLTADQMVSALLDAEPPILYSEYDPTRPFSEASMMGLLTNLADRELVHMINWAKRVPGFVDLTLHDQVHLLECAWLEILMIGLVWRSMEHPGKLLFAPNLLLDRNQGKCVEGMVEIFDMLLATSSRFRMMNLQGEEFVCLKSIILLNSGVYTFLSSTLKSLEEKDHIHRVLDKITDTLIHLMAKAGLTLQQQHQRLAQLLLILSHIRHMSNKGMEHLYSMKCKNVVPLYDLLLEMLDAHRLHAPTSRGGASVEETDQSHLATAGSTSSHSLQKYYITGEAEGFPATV
Nature of the data set: Radioligand binding competition with [3H]-17β-estradiol, ERα. To be noted: read-out: ER-α IC50.

The test system of data set [3] is metallothionein-II mRNA in Saos-2 cells. Nature of the data set: Regulation of metallothionein II mRNA in Saos-2 cells. The class given is cell-based.
Setting [4] is: competition with [3H]-17β-estradiol, human ERα ligand binding domain.
[5] abbreviates: competition with [3H]-17β-estradiol, human ERβ ligand binding domain, read-out: ER-β IC50.

The structures appear in SMILES notation. Like-named read-outs stand apart in the source and are kept apart here.

T1 sequence (Q92731 214-530): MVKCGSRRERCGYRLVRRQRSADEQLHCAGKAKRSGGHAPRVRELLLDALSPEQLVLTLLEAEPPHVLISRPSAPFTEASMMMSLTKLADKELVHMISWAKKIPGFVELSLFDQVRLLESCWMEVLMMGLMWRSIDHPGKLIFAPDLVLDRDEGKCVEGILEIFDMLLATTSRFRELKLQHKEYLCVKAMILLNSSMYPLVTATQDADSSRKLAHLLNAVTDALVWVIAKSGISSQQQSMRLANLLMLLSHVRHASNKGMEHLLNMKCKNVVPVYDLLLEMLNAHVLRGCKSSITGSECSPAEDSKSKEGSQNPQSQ

In turn, `O=C1C(c2ccc(O)cc2)=C(c2ccccc2)c2cc(O)ccc21` [Example 11, 5-hydroxy-2-(4-hydroxyphenyl)-3-phenyl-1H-inden-1-one] displayed a melting point of 222 to 225 °C. This compound also showed an IC50 in data set [1] of 5 nM. Also, the concentration for half-maximal inhibition (IC50) in data set [2] (setting [4]) was found to be 15 nM.
Regarding `CSC1=C(c2ccc(O)cc2)C(=O)c2ccc(O)cc21` [Example 9, 5-hydroxy-2-(4-hydroxyphenyl)-3-(methylthio)-1H-inden-1-one], the melting point is 183 to 185 °C. Further, the half-inhibitory concentration (IC50) in data set [1] is 1 nM. In addition, the IC50 in data set [2] (setting [4]) was found to be 3 nM.
Regarding `CCNC1=C(c2ccc(O)cc2)C(=O)c2cc(O)ccc21` [Example 5, 3-(Ethylamino)-6-hydroxy-2-(4-hydroxyphenyl)-1H-inden-1-one], the melting point was 250 °C (dec.). The concentration for half-maximal inhibition (IC50) in data set [1] (setting [5]) came out at 2700 nM. Also, the IC50 in data set [2] (setting [4]) was above 5000 nM.
The compound `O=C1C(c2ccc(O)cc2)=C(c2ccccc2)c2c(O)cc(O)cc21` [Example 20, 4,6-Dihydroxy-2-(4-hydroxyphenyl)-3-phenyl-1H-inden-1-one] registered a melting point of 223 to 225 °C. Also, in data set [1] (setting [5]), the half-maximal inhibitory concentration (IC50) amounted to 44 nM. Also, the half-inhibitory concentration (IC50) in data set [2] (setting [4]) turned out to be 47 nM.
Consider `COc1cc(O)cc2c1C(Br)=C(c1ccc(O)cc1)C2=O` [Example 16, 3-bromo-6-hydroxy-2-(4-hydroxyphenyl)-4-methoxy-1H-inden-1-one], for which the melting point was 210 °C (dec.). Moreover, the IC50 in data set [1] (setting [5]) came out at 150 nM. Besides, in data set [2] (setting [4]), the half-inhibitory concentration (IC50) came out at 200 nM.
On to `CC1=C(c2ccc(O)cc2)C(=O)c2cc(O)c(O)cc21` [Example 22, 5,6-Dihydroxy-2-(4-hydroxyphenyl)-3-methyl-1H-inden-1-one], for which the melting point lay in the range of 226 to 229 °C. In addition, the 50% inhibitory concentration (IC50) in data set [1] (setting [5]) was found to be 131 nM. Also, the IC50 in data set [2] (setting [4]) is 76 nM.
As for `O=C1c2cc(O)cc(O)c2C(=O)C1c1ccc(O)cc1` (stereo not drawn) [Example 14, 4,6-dihydroxy-2-(4-hydroxyphenyl)-1H-inden-1,3(2H)-dione], the melting point lay in the range of 220 to 222 °C. Moreover, the 50% inhibitory concentration (IC50) in data set [1] (setting [5]) was 1380 nM.
`CSC1=C(c2ccc(O)cc2)C(=O)c2cc(O)ccc21` [Example 8, 6-hydroxy-2-(4-hydroxyphenyl)-3-(methylthio)-1H-inden-1-one]: the melting point is 90 to 92 °C. The half-inhibitory concentration (IC50) in data set [1] (setting [5]) came to 3 nM. Also, in data set [2] (setting [4]), the concentration for half-maximal inhibition (IC50) is 12 nM.
As to `O=C1C(c2ccc(O)cc2)=C(Br)c2c(O)cc(O)cc21` [Example 15, 3-bromo-4,6-dihydroxy-2-(4-hydroxyphenyl)-1H-inden-1-one], the melting point was 350 °C (dec.). The concentration for half-maximal inhibition (IC50) in data set [1] (setting [5]) amounted to 267 nM. For the same compound, in data set [3], the “Fold upregulation of metallothionein-II mRNA” value (from here on “Fold upregulation”) worked out at 5.6. Besides, the IC50 in data set [2] (setting [4]) amounted to 714 nM.
Compound `O=C1c2ccc(O)cc2C(=O)C1c1ccc(O)cc1` (stereo not drawn) [Example 2, 5-Hydroxy-2-(4-hydroxyphenyl)-1H-indene-1,3(2H)-dione] displayed a melting point of 227 to 228 °C. The half-inhibitory concentration (IC50) in data set [1] (setting [5]) is 2630 nM.
The compound `CC1=C(c2ccc(O)cc2)C(=O)c2ccc(O)cc21` [Example 13, 5-hydroxy-2-(4-hydroxyphenyl)-3-methyl-1H-inden-1-one] yielded a melting point of 251 °C. In addition, in data set [1] (setting [5]), the IC50 is 2 nM. The half-inhibitory concentration (IC50) in data set [2] (setting [4]) amounted to 6 nM.
As to `O=C1C(c2ccc(O)cc2)=C(Br)c2ccc(O)cc21` [Example 3, 3-Bromo-6-hydroxy-2-(4-hydroxyphenyl)-1H-inden-1-one], the melting point was 240 °C (dec.). In data set [3], the “Fold upregulation” value amounted to 10.8. For the same compound, in data set [2] (setting [4]), the half-inhibitory concentration (IC50) stood at 290 nM.
The compound `CCSC1=C(c2ccc(O)cc2)C(=O)c2ccc(O)cc21` [Example 7, 3-(Ethylthio)-5-hydroxy-2-(4-hydroxyphenyl)-1H-inden-1-one] yielded a melting point of 118 to 120 °C. The IC50 in data set [1] (setting [5]) turned out to be 150 nM. The 50% inhibitory concentration (IC50) in data set [2] (setting [4]) came to 400 nM.
For `O=C1C(c2ccc(O)cc2)=C(c2ccccc2)c2ccc(O)cc21` [Example 10, 6-hydroxy-2-(4-hydroxyphenyl)-3-phenyl-1H-inden-1-one], the melting point fell in the range of 100 to 110 °C. In data set [1], this compound returned a concentration for half-maximal inhibition (IC50) of 8 nM. Further, the IC50 in data set [2] (setting [4]) was 10 nM.
As to `CC1=C(c2ccc(O)cc2)C(=O)c2c(O)cc(O)cc21` [Example 17, 5,7-Dihydroxy-2-(4-hydroxyphenyl)-3-methyl-1H-inden-1-one], the melting point was 215 to 217 °C. Moreover, the IC50 in data set [1] amounted to 2 nM. For the same compound, the IC50 in data set [2] (setting [4]) is 31 nM.
On to `O=C1C(c2ccc(O)cc2)=C(Br)c2cc(O)ccc21` [Example 4, 3-Bromo-5-hydroxy-2-(4-hydroxyphenyl)-1H-inden-1-one], for which the melting point was 245 °C (dec.). The compound also registered an IC50 in data set [1] of 2 nM. The “Fold upregulation” value in data set [3] is listed as 10.4. In data set [2] (setting [4]), the half-inhibitory concentration (IC50) amounted to 5 nM.
Take `CCSC1=C(c2ccc(O)cc2)C(=O)c2cc(O)ccc21` [Example 6, 3-(Ethylthio)-6-hydroxy-2-(4-hydroxyphenyl)-1H-inden-1-one]: the melting point lay in the range of 78 to 81 °C. Besides, in data set [1] (setting [5]), the concentration for half-maximal inhibition (IC50) worked out at 8 nM. In addition, the IC50 in data set [2] (setting [4]) was determined as 10 nM.
The matching figures for `CC1=C(c2ccc(O)cc2)C(=O)c2cc(O)ccc21` [Example 12, 6-hydroxy-2-(4-hydroxyphenyl)-3-methyl-1H-inden-1-one]: 240 to 245 °C, 11 nM and 55 nM.
`NC1=C(c2ccc(O)cc2)C(=O)c2ccc(O)cc21` [Example 1, 3-Amino-5-hydroxy-2-(4-hydroxyphenyl)-1H-inden-1-one] gave a melting point of 260 to 265 °C. The compound further came in with an IC50 in data set [1] of 1150 nM. For the same compound, in data set [2] (setting [4]), the half-inhibitory concentration (IC50) was above 5000 nM.
`CCSC1=C(c2ccc(O)cc2)C(=O)c2cc(O)cc(O)c21` [Example 19, 3-(Ethylthio)-4,6-Dihydroxy-2-(4-hydroxyphenyl)-1H-inden-1-one] returned a melting point of 187 to 190 °C. In data set [1], this compound had a concentration for half-maximal inhibition (IC50) of 2 nM. Further, in data set [2] (setting [4]), the IC50 was 3 nM.
Compound `CSC1=C(c2ccc(O)cc2)C(=O)c2cc(O)cc(O)c21` [Example 18, 4,6-Dihydroxy-2-(4-hydroxyphenyl)-3-(methylthio)-1H-inden-1-one] came in with a melting point of 208 to 210 °C.
In turn, `O=C1C(c2ccc(O)cc2)=C(c2ccccc2)c2cc(O)cc(O)c21` [Example 21, 5,7-Dihydroxy-2-(4-hydroxyphenyl)-3-phenyl-1H-inden-1-one] came in with a melting point of 128 to 130 °C. In data set [2], the half-maximal inhibitory concentration (IC50) is 3 nM.
